Assay results: patent publication US6767569B1, “Surface decontamination of cooked sausage and processed meat and poultry products” (priority 1999, dated 2004)

Experiments:
Salmonella spp. = format: cell-based; settings: pork skin; 5 seconds spray; 2% lactic acid, 2% acetic acid, 0.1% peracetic acid; after 48 hours
Experimental: (§1) Samples of pork skin were inoculated separately with either 5 strains of E. coli or 5 strains of Salmonella spp. (mixtures X and Y, see Example 4). Five different treatments were evaluated for effectiveness in reducing bacteria on pork skin. […] EMB agar was used for E. coli and XLD for Salmonella, and a nutrient agar was also used for E. coli and Salmonella for total count.
(§2) The five strains of generic E. coli and five strains of Salmonella spp. were cultured and transferred individually into 100 mL of tryptic soy broth (TSB, DIFCO, Detroit, Mich.) with 1% dextrose (Sigma, St. Louis, Mo.) in duplicate. Dextrose was added to induce acid tolerance in the microbial cell. The cultures were incubated at 35° C. for 24 hrs. to obtain ca. 10^9 colony forming units (CFU)/mL. The cells were harvested by the centrifuging each culture at 10,000 Xg force for 10 min. at 4° C., (Beckman J2-HS centrifuge, Beckman Instruments, Inc., Palo Alto, Calif.). After centrifugation, the supernatant was poured off, and cells remained in pellet form. Each pellet was individually re-suspended with 50 mL of 0.1% peptonewater (DIFCO, Detroit, Mich.). All five strains of E. coli or Salmonella spp. inoculum were transferred to separate HDPE plastic spray bottles (Sprayco™, Detroit, Mich.) to be used in the mist inoculation of pork skin samples.
(§3) For E. coli, PCA and EMB media were used, and for Salmonella, PCA and XLD media were used. Bacto Plate Count Agar (PCA) was used in this study as a standard methods medium for the enumeration of bacteria before and after treatments. Spiral (sl), or spread (sd) plate technique were used for viable cell counts. Duplicate plates were performed for each treatment.
(§4) Fresh pork skins taken from the loin region were cut to rectangles of 19.35 cm^2. A hole was bored into the top of each sample so that each sample could be suspended from an individual hook in the spray cabinet. Samples were laid out onto trays wrapped in butcher paper. Each tray was individually spray inoculated with E. coli or Salmonella spp. in a Plexiglas spray chamber to ca. 8.4 mL of inoculum. After the inoculation, each tray was placed under a laminar flow hood for 1 hr. to allow the surface to dry and for the attachment of the bacteria to the pork skin.
(§5) The peracetic acid (PAA) used in this study was a 35.0% PAA buffered, liquid solution prepared from a STERIS 20™ two compartment cup (a dry powder containing anticorrosive additives, buffers, sequestrants, and surfactants). The peracetic acid determined before each use of the treatment using a calibration curve.
(§6) Five inoculated samples were individually placed on stainless steel hooks in. a spray cabinet at ambient temperature.
(§7) The samples were exposed to a continuous spray of the selected treatment for 5 seconds at a spray pressure of 16-18 psi.
(§8) The treated samples were placed into individual stomacher bags containing 30 mL of 0.1% peptone water (DIFCO, Detroit, Mich.) and stomached for 2 min. Serial dilutions of 0, 10^−2, and 10^−4 were spiral plated (WASP spiral plater, Bioscience International, Rockville, Md.) on PCA (DIFCO, Detroit, Mich.) and EMB (DIFCO, Detroit, Mich.) for E. coli and on plate count agar (PCA, DIFCO, Detroit, Mich.) and xylose lysine decarboxylase agar (XLD, DIFCO, Detroit, Mich.) for Salmonella spp. Samples were also spread plated on PCA and EMB agar for E. coli or PCA and XLD agar for Salmonella spp, using […] for a total of 1 mL on 4 plates. This was to ensure a countable plate. Plates were inverted and incubated at 35° C. for 24 hrs. (48 hrs. for Salmonella spp.).

E. coli = format: cell-based; settings: 5 seconds spray
Experimental: as §1, §2, §3, §4, §5, §6, §7, §8

[1] = pork skin, 2% lactic acid, 2% acetic acid, 0.1% peracetic acid, after 24 hours

In the case of `CC(=O)OO` [peracetic acid], the “Total Count (Salmonella) on PCA” value (Salmonella spp.) is reported as 5.34 Log CFU/cm^2, the “Total Count (Salmonella) on XLD” value (Salmonella spp.) is reported as 3.83 Log CFU/cm^2 and the “reduction of E. coli on pork skin” value (E. coli; peracetic acid 0.1%) is reported as 3 log/cm^2. For the same compound, the “Total Count (E. coli) on EMB” value (E. coli; [1]) was 3.04 Log CFU/cm^2 and the “Total Count (E. coli) on PCA” value (E. coli; [1]) was 3.28 Log CFU/cm^2.
